Experimental findings from PubChem BioAssay AID330 (DTP/NCI, 2004) are described below.

This assay concerns P388 leukemia ip, CD2F1 mice, survival T/C. As to the kind of experiment: NCI In Vivo Anticancer Drug Screen. Data for tumor model P388 Leukemia (intraperitoneal) in CD2F1 (CDF1) mice. Particulars: endpoint: median survival time, higher = longer survival. In outline: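 Mice carrying the transplanted tumor received test compound or vehicle. Survival was recorded in each group, and the value is the treated-group measurement divided by that of the vehicle-treated control group.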

Where [1] appears, read: dose: 50.0 mg/kg/injection, schedule: Q01DX009 (ip), vehicle: saline.
[2] abbreviates: dose: 100.0 mg/kg/injection, schedule: Q01DX009 (ip), vehicle: saline.
Where [3] appears, read: dose: 200.0 mg/kg/injection, schedule: Q01DX009 (ip), vehicle: saline.
Where [4] appears, read: dose: 400.0 mg/kg/injection, schedule: Q01DX009 (ip), vehicle: saline.
The mark [5] stands for this setting: dose: 50.0 mg/kg/injection, schedule: Q01DX009 (ip), vehicle: saline with Tween-80.
Where [6] appears, read: dose: 100.0 mg/kg/injection, schedule: Q01DX009 (ip), vehicle: saline with Tween-80.
The mark [7] stands for this setting: dose: 200.0 mg/kg/injection, schedule: Q01DX009 (ip), vehicle: saline with Tween-80.
Where [8] appears, read: dose: 12.5 mg/kg/injection, schedule: Q01DX005 (ip), vehicle: saline with Tween-80.
The mark [9] stands for this setting: dose: 50.0 mg/kg/injection, schedule: Q01DX005 (ip), vehicle: saline with Tween-80.
Setting [10] is: dose: 100.0 mg/kg/injection, schedule: Q04DX002 (ip), vehicle: saline.
Where [11] appears, read: dose: 200.0 mg/kg/injection, schedule: Q04DX002 (ip), vehicle: saline.
[12] abbreviates: dose: 400.0 mg/kg/injection, schedule: Q04DX002 (ip), vehicle: saline.
Where [13] appears, read: dose: 50.0 mg/kg/injection, schedule: Q01DX005 (ip), vehicle: Klucel (hydroxypropylcellulose) (HPC).
Where [14] appears, read: dose: 100.0 mg/kg/injection, schedule: Q01DX005 (ip), vehicle: Klucel (hydroxypropylcellulose) (HPC).
The mark [15] stands for this setting: dose: 50.0 mg/kg/injection, schedule: Q01DX009 (ip), vehicle: Klucel (hydroxypropylcellulose) (HPC).
[16] abbreviates: dose: 100.0 mg/kg/injection, schedule: Q01DX009 (ip), vehicle: Klucel (hydroxypropylcellulose) (HPC).
Setting [17] is: dose: 12.5 mg/kg/injection, schedule: Q01DX005 (ip), vehicle: Klucel (hydroxypropylcellulose) (HPC).
The mark [18] stands for this setting: dose: 25.0 mg/kg/injection, schedule: Q01DX005 (ip), vehicle: Klucel (hydroxypropylcellulose) (HPC).

Values joined by “and” are separate entries in the source; they are usually repeats but may differ in a detail not shown here. Equal entries are not always repeated. Toxic doses and inconclusive results are not listed.

With `CC(=O)Oc1cccnc1`, the T/C (dose: 50.0 mg/kg/injection, schedule: Q01DX006 (ip), vehicle: saline) was 106 % of control; the T/C under setting [1] was 100 % of control; the T/C (dose: 100.0 mg/kg/injection, schedule: Q01DX006 (ip), vehicle: saline) was 100 % of control; the T/C under setting [2] was 96 % of control; the T/C (dose: 200.0 mg/kg/injection, schedule: Q01DX006 (ip), vehicle: saline) was 100 % of control; the T/C under setting [3] is 95 % of control. Also, the T/C reads like this: (dose: 400.0 mg/kg/injection, schedule: Q01DX006 (ip), vehicle: saline) 100 % of control; under setting [4], 95 % of control; (dose: 600.0 mg/kg/injection, schedule: Q01DX006 (ip), vehicle: saline) 100 % of control; (dose: 600.0 mg/kg/injection, schedule: Q01DX009 (ip), vehicle: saline) 94 % of control; (dose: 800.0 mg/kg/injection, schedule: Q01DX006 (ip), vehicle: saline) 99 % of control; (dose: 800.0 mg/kg/injection, schedule: Q01DX009 (ip), vehicle: saline) 95 % of control.
Regarding `CSc1ccc(NC(=O)ON2CCCCC2)cc1`, the T/C is, setting by setting: under setting [5], 99 % of control; under setting [6], 108 % of control; under setting [7], 101 % of control.
Consider `CN1C(=O)C(=Cc2ccc(O)cc2)C(=O)N(C)C1=O`, for which the T/C was 112 % of control and 113 % of control under setting [5]; 118 % of control and 123 % of control under setting [6]; 86 % of control (dose: 400.0 mg/kg/injection, schedule: Q01DX009 (ip), vehicle: saline with Tween-80).
For `CC(c1ccccc1)n1ccnc1CC#N` (stereo not given), the T/C (dose: 15.0 mg/kg/injection, schedule: Q01DX005 (ip), vehicle: saline) is 101 % of control; the T/C (dose: 30.0 mg/kg/injection, schedule: Q01DX005 (ip), vehicle: saline) was 100 % of control; the T/C (dose: 60.0 mg/kg/injection, schedule: Q01DX005 (ip), vehicle: saline) was 99 % of control and 98 % of control.
`CCCCN(CCCC)CC(C)(C)C(O)c1ccc(OC)c2ccccc12` (stereo not given): the T/C under setting [8] was 106 % of control; the T/C (dose: 25.0 mg/kg/injection, schedule: Q01DX005 (ip), vehicle: saline with Tween-80) is 106 % of control; the T/C under setting [9] is 101 % of control and 103 % of control.
For the compound `COCOc1c(OC)c(C2(O)C(=O)N(C)c3ccccc32)c(OCOC)c(OC)c1C1(O)C(=O)N(C)c2ccccc21` (stereo not given), the T/C is, setting by setting: (dose: 60.0 mg/kg/injection, schedule: Q01DX005 (ip), vehicle: saline with Tween-80) 100 % of control; (dose: 120.0 mg/kg/injection, schedule: Q01DX005 (ip), vehicle: saline with Tween-80) 89 % of control; (dose: 240.0 mg/kg/injection, schedule: Q01DX005 (ip), vehicle: saline with Tween-80) 88 % of control.
For the compound `COC(=O)c1ccoc1`, the T/C under setting [5] is 96 % of control; the T/C under setting [1] is 116 % of control; the T/C under setting [6] was 108 % of control; the T/C under setting [7] was 123 % of control; the T/C under setting [3] was 113 % of control; the T/C under setting [4] is 107 % of control.
Take `CC1=NNB(O)c2sccc21`: the T/C under setting [5] was 90 % of control, the T/C under setting [6] is 100 % of control and the T/C under setting [7] is 91 % of control.
Regarding `O=C(O)C1CCCCC12OCCO2` (stereo not given), the T/C is 102 % of control under setting [10], 106 % of control under setting [11] and 98 % of control under setting [12].
Take `CC(C)CNCC(=O)Nc1ccc(-c2ccc(NC(=O)CNCC(C)C)cc2)cc1`: the T/C is 97 % of control under setting [13]; 97 % of control under setting [14]; 95 % of control (dose: 200.0 mg/kg/injection, schedule: Q01DX005 (ip), vehicle: Klucel (hydroxypropylcellulose) (HPC)).
Regarding `COc1ccc(-c2cc(=O)c3cc(C)c(C)c(C#N)c3o2)cc1`, the T/C was 120 % of control (dose: 3.75 mg/kg/injection, schedule: Q01DX005 (ip), vehicle: Klucel (hydroxypropylcellulose) (HPC)); 93 % of control (dose: 7.5 mg/kg/injection, schedule: Q01DX005 (ip), vehicle: Klucel (hydroxypropylcellulose) (HPC)); 109 % of control (dose: 15.0 mg/kg/injection, schedule: Q01DX005 (ip), vehicle: Klucel (hydroxypropylcellulose) (HPC)); 86 % of control (dose: 120.0 mg/kg/injection, schedule: Q01DX005 (ip), vehicle: Klucel (hydroxypropylcellulose) (HPC)).
In the case of `CSc1ccc(NC(=S)SCc2ccc3c(c2)OCO3)cc1Cl`, the T/C (dose: 50.0 mg/kg/injection, schedule: Q01DX009 (ip), vehicle: suspension in saline) was 105 % of control; the T/C (dose: 100.0 mg/kg/injection, schedule: Q01DX009 (ip), vehicle: suspension in saline) was 101 % of control; the T/C (dose: 200.0 mg/kg/injection, schedule: Q01DX009 (ip), vehicle: suspension in saline) was 98 % of control.
`C/C=C/C=C/C(O)CC(=O)N1OC2(C)c3ccccc3C1(C)c1ccccc12` (stereo not given): the T/C is 92 % of control (dose: 100.0 mg/kg/injection, schedule: Q04DX003 (ip), vehicle: saline + alcohol); 92 % of control (dose: 200.0 mg/kg/injection, schedule: Q04DX003 (ip), vehicle: saline + alcohol); 98 % of control (dose: 400.0 mg/kg/injection, schedule: Q04DX003 (ip), vehicle: saline + alcohol).
Consider `COc1ccc2c(c1)CCC1=C2P(C)(=S)CC1` (stereo not given), for which the T/C under setting [15] was 101 % of control; the T/C under setting [16] is 104 % of control; the T/C (dose: 200.0 mg/kg/injection, schedule: Q01DX009 (ip), vehicle: Klucel (hydroxypropylcellulose) (HPC)) was 106 % of control.
With `Cc1cc(C)[n+](C)c2cc3ccccc3cc12`, the T/C is 115 % of control under setting [8] and 109 % of control under setting [9].
For `CN(N=O)C(=O)Nc1cc(=O)[nH]c(SCc2ccccc2)n1`, the T/C reads like this: under setting [17], 104 % of control; under setting [18], 114 % of control; under setting [13], 124 % of control; under setting [14], 160 % of control.
As to `CSc1nc(SC)c2nc(SC)sc2n1`, the T/C by setting is: (dose: 50.0 mg/kg/injection, schedule: Q01DX001 (ip), vehicle: saline with Tween-80) 90 % of control; (dose: 100.0 mg/kg/injection, schedule: Q01DX001 (ip), vehicle: saline with Tween-80) 88 % of control and 90 % of control; (dose: 200.0 mg/kg/injection, schedule: Q01DX001 (ip), vehicle: saline with Tween-80) 90 % of control; (dose: 400.0 mg/kg/injection, schedule: Q01DX001 (ip), vehicle: saline with Tween-80) 87 % of control.
For the compound `NC(Cc1cccc2ccccc12)C(=O)O` (stereo not given), the T/C under setting [17] was 93 % of control; the T/C under setting [18] is 100 % of control; the T/C under setting [13] is 102 % of control and 110 % of control.
`O=C1C=C2OCOC2=CC1=O`: the T/C is, setting by setting: (dose: 4.38 mg/kg/injection, schedule: Q01DX005 (ip), vehicle: Klucel (hydroxypropylcellulose) (HPC)) 100 % of control; (dose: 8.75 mg/kg/injection, schedule: Q01DX005 (ip), vehicle: Klucel (hydroxypropylcellulose) (HPC)) 99 % of control; (dose: 17.5 mg/kg/injection, schedule: Q01DX005 (ip), vehicle: Klucel (hydroxypropylcellulose) (HPC)) 103 % of control and 104 % of control.
For the compound `CC(=O)OCC1=CC2OC(=O)C3=COC(OC4OC(CO)C(O)C(O)C4O)C1C32` (stereo not given), the T/C is 93 % of control (dose: 12.5 mg/kg/injection, schedule: Q01DX009 (ip), vehicle: saline); 88 % of control (dose: 25.0 mg/kg/injection, schedule: Q01DX009 (ip), vehicle: Klucel (hydroxypropylcellulose) (HPC)); 98 % of control (dose: 25.0 mg/kg/injection, schedule: Q01DX009 (ip), vehicle: saline); 88 % of control under setting [15]; 98 % of control under setting [1]; 107 % of control (dose: 50.0 mg/kg/injection, schedule: Q04DX002 (ip), vehicle: saline). Besides, the T/C reads like this: under setting [16], 89 % of control; under setting [10], 101 % of control; under setting [11], 99 % of control.
As for `O=Nc1cc(S(=O)(=O)O)c2cccnc2c1O`, the T/C is 100 % of control under setting [10], 100 % of control under setting [11] and 90 % of control under setting [12].
For the compound `C=CCOc1ccccc1/C(CC)=N/N(C)C`, the T/C under setting [1] was 111 % of control and the T/C under setting [2] is 100 % of control.
